We go through two molecules from ChEMBL document CHEMBL4321836, “Discovery of BAY-298 and BAY-899: Tetrahydro-1,6-naphthyridine-Based, Potent, and Selective Antagonists of the Luteinizing Hormone Receptor Which Reduce Sex Hormone Levels in Vivo” (J Med Chem, 2019).

One data set addresses Cytochrome P450 2C9 (Homo sapiens, UniProt P11712). As to the kind of experiment: Inhibition of CYP2C9 in human liver microsomes using diclofenac as substrate by LC-MS/MS analysis. The class given is ADME. Background: Liver microsomes are vesicles of endoplasmic reticulum, rich in cytochrome P450 enzymes.
For data set [1], the target named is Substance-P receptor (Homo sapiens) (UniProt P25103). Kind of data set: Antagonist activity at human NK1 receptor expressed in U373 MG cells at 10 uM by fluorimetric method relative to control. Further details: scale not given: the % may be the effect or the level left. It counts as cell-based. The conditions noted are these: U-373MG ATCC.
Substance-P receptor (Homo sapiens), sequence (P25103 whole entry): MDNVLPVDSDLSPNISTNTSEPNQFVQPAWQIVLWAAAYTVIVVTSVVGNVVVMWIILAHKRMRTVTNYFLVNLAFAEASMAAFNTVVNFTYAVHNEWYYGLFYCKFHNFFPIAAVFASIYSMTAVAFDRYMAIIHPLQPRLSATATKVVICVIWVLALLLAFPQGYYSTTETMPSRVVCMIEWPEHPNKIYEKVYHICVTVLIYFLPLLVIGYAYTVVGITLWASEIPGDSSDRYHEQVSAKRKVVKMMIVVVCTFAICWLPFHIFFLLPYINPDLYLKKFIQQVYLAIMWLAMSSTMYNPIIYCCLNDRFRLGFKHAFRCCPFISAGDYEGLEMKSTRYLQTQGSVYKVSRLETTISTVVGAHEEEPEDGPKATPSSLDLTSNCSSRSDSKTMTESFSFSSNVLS
The nature of data set [2]: Half life in Wistar rat at 2 mg/kg, po after 8 to 72 hrs by LC-MS/MS analysis. The class given is ADME, organism-based. Conditions: in vivo.
A short description of data set [3]: Maximum oral bioavailability in human liver microsomes based well stirred liver model at 1 uM measured after 2 to 60 mins in presence of glucose-6-phosphate by LC-MS/MS analysis. The class given is ADME, Microsome. The conditions noted are these: read-out: Fmax.
Data set [4] in a line: Oral bioavailability in Wistar rat at 2 mg/kg after 8 to 72 hrs by LC-MS/MS analysis. The class given is ADME, organism-based. The conditions noted are these: in vivo.
For the next data set, the species on record is Homo sapiens. As to the kind of experiment: Selectivity ratio of IC50 for human thyroid stimulating hormone receptor expressed in rat HTC133 cells to human luteinizing hormone receptor. The class given is cell-based.
Data set [5] can be described thus: Maximum oral bioavailability in Han Wistar rat hepatocytes at 1 uM measured after 2 to 90 mins by LC-MS/MS analysis. The class given is ADME, Hepatocyte. The conditions noted are these: read-out: Fmax.
The test system of data set [6] is Rattus norvegicus. As to the kind of experiment: Downregulation of estradiol level in proestrus staged-female rat serum at 12.5 mg/kg, po administered once daily for 8 days and measured by radioimmunoassay method (reference value: 144 pmol/L). The class given is functional.
In data set [7] the test system is Rattus norvegicus. Kind of data set: Induction of long-term effect on estrus cycle in 4 day cycle of normally cycling female rat assessed as changes in vaginal smears at 12.5 mg/kg, po administered once daily for 8 days. The class given is functional, organism-based.
For data set [8], the target named is Beta-1 adrenergic receptor (Homo sapiens) (UniProt P08588). Kind of data set: Antagonist activity at human beta1 adrenergic receptor expressed in HEK293 cells at 10 uM after 30 mins HTRF assay relative to control. It counts as cell-based. Set-up: scale not given: the % may be the effect or the level left. (Time-resolved FRET reads energy transfer from a long-lived donor to a nearby acceptor.)
Beta-1 adrenergic receptor (Homo sapiens), sequence (P08588 whole entry, looked up): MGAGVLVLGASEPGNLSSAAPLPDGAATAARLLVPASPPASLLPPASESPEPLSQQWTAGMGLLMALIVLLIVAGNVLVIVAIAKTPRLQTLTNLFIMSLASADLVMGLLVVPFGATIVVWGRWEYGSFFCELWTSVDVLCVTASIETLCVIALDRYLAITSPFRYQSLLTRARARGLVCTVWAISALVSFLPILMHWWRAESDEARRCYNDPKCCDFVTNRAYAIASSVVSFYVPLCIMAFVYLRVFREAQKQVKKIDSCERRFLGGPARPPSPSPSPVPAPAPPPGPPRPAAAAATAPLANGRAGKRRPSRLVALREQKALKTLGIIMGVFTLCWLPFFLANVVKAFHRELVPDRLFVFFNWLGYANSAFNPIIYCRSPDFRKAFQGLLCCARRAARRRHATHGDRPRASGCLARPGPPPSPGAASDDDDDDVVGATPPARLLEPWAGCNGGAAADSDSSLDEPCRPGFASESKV

The target in data set [9] is T1, Alpha-1A adrenergic receptor (Homo sapiens) (UniProt P35348).
T1 sequence (whole entry): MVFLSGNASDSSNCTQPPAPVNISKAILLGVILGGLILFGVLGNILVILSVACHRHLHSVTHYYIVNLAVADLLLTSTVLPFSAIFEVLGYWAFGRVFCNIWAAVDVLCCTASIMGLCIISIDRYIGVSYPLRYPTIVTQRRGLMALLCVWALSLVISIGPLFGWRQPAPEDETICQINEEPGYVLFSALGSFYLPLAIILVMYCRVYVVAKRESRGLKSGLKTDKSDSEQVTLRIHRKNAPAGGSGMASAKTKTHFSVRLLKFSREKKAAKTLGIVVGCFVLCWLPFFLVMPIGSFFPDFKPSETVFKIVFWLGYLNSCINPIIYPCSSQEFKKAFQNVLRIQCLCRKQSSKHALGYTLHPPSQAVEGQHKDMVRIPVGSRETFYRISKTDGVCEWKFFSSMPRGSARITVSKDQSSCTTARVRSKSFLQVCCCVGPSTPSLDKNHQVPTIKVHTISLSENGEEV
As to the kind of experiment: Agonist activity at human alpha1A adrenergic receptor expressed in CHO-K1 cells at 10 uM by fluorimetric method relative to control. The class given is cell-based.

Data set [10] concerns the target Histamine H2 receptor (Homo sapiens) (UniProt P25021). As to the kind of experiment: Antagonist activity at human histamine H2 receptor expressed in CHO-K1 cells at 10 uM after 30 mins by HTRF assay relative to control. It counts as cell-based. Further details: scale not given: the % may be the effect or the level left.
Data set [11] can be described thus: Aqueous solubility of the compound at pH 6.5 incubated for 24 hrs under shaking condition by HPLC-MS/MS analysis. It counts as physicochemical. The conditions noted are these: buffer.
Data set [12] deals with 5-hydroxytryptamine receptor 2B (Homo sapiens) (UniProt P41595). Kind of data set: Antagonist activity at human 5-HT2B receptor expressed in CHO-K1 cells at 10 uM after 30 mins by HTRF assay relative to control. Further details: scale not given: the % may be the effect or the level left. It counts as cell-based.
5-hydroxytryptamine receptor 2B (Homo sapiens), sequence (P41595 whole entry): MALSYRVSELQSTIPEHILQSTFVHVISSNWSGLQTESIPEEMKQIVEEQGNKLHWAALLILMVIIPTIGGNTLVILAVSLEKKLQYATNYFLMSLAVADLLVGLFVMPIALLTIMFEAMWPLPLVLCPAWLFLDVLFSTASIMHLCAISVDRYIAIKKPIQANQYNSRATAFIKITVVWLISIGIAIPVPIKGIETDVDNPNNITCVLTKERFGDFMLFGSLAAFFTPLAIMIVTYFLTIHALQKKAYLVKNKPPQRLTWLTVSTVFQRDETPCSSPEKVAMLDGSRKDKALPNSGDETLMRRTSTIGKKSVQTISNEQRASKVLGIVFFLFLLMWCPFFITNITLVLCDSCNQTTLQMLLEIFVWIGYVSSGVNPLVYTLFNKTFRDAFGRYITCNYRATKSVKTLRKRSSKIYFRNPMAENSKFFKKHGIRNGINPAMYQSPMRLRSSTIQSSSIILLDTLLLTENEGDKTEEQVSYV
Data set [13] is described as follows: Maximum oral bioavailability in rat liver microsomes based well stirred liver model at 1 uM measured after 2 to 60 mins in presence of glucose-6-phosphate by LC-MS/MS analysis. The class given is ADME, Microsome. The conditions noted are these: read-out: Fmax.
Another data set deals with Thyrotropin receptor (Homo sapiens, UniProt P16473). As to the kind of experiment: Antagonist activity at human thyroid stimulating hormone receptor expressed in rat HTC133 cells assessed as reduction in agonist-induced cAMP production preincubated for 20 mins followed by agonist solution addition and measured after 60 mins by cell based TR-FRET assay. The class given is functional.
Thyrotropin receptor, sequence (P16473 whole entry): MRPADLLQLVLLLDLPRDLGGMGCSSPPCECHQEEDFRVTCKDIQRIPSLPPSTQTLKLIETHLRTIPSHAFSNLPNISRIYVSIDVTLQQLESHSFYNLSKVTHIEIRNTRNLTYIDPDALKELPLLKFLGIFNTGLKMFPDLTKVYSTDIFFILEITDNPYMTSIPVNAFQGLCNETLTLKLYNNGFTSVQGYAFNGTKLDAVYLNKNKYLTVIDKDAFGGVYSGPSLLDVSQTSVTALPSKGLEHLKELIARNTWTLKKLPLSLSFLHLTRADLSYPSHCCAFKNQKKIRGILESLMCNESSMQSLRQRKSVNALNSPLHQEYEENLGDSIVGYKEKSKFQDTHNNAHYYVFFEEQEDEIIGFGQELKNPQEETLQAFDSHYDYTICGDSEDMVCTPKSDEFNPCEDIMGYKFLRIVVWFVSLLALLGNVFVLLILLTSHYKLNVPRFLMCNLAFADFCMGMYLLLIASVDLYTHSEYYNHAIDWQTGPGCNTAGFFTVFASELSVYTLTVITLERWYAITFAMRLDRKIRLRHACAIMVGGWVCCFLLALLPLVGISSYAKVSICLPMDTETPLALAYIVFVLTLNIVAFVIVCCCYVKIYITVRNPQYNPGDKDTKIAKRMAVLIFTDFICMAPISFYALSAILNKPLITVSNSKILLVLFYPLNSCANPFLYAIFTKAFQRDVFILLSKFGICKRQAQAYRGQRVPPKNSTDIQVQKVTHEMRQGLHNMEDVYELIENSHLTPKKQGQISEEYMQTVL

Data set [14] in a line: Clearance in Wistar rat at 0.5 mg/kg, iv after 2 to 72 hrs by LC-MS/MS analysis. It counts as ADME, organism-based. Conditions: in vivo.
Data set [15] addresses Lutropin-choriogonadotropic hormone receptor (Homo sapiens, UniProt P22888). Kind of data set: Antagonist activity at human luteinizing hormone receptor assessed as reduction in agonist-induced cAMP production preincubated for 20 mins followed by agonist solution addition after 60 mins by cell based TR-FRET assay. It counts as functional. On the technique in general: Cyclic AMP is a second messenger, typically raised through Gs and lowered through Gi signalling.

Data set [16] in a line: Plasma concentration in female rat at 12.5 mg/kg, po administered once daily for 8 days and measured on day 8. It counts as ADME, organism-based.
Data set [17] addresses Somatostatin receptor type 4 (Homo sapiens) (UniProt P31391). As to the kind of experiment: Agonist activity at human sst4 expressed in CHO-K1 cells at 10 uM after 10 mins by HTRF assay relative to control. The class given is cell-based.
The target of data set [18] is T2, Adenosine receptor A3 (Homo sapiens) (UniProt P0DMS8).
T2 sequence (whole entry): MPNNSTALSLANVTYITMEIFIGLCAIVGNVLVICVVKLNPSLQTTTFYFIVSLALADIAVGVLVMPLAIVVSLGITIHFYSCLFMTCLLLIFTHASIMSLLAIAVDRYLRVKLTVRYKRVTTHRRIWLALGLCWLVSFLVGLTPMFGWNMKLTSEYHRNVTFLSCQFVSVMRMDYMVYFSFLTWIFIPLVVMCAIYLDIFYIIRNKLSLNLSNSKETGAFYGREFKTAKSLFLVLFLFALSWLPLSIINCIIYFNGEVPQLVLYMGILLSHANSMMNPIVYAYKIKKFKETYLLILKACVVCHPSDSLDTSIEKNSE
As to the kind of experiment: Antagonist activity at human A3 receptor expressed in CHO-K1 cells at 10 uM after 20 mins by HTRF assay relative to control. It counts as cell-based. Set-up: scale not given: the % may be the effect or the level left.

The nature of data set [19]: Dose normalized Cmax in Wistar rat at 0.5 mg/kg, iv after 2 to 72 hrs by LC-MS/MS analysis. It counts as ADME, organism-based. Conditions: in vivo.
A short description of data set [20]: Clearance in Han Wistar rat hepatocytes at 1 uM measured after 2 to 90 mins by LC-MS/MS analysis. The class given is ADME, cell-based, Hepatocyte.

In brackets after ≈: the same amount, converted by molar mass. Activity calls are given as the source filed them. No cut-off for these calls is given here.

Cytochrome P450 2C9, sequence (P11712 whole entry): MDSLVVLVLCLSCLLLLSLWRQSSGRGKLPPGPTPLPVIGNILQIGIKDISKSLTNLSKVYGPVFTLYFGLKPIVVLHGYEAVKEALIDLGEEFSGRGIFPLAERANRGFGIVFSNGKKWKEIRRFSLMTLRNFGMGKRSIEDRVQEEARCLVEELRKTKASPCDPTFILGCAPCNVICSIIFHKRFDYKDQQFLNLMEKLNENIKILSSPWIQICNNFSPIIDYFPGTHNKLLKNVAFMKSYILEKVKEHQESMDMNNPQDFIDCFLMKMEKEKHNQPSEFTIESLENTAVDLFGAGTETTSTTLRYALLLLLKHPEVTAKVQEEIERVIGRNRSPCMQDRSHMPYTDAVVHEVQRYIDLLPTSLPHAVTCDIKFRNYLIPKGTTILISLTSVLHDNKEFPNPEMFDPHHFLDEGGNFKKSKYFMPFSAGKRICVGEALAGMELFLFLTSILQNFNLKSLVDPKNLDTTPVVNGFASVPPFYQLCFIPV
Lutropin-choriogonadotropic hormone receptor, sequence (P22888 whole entry): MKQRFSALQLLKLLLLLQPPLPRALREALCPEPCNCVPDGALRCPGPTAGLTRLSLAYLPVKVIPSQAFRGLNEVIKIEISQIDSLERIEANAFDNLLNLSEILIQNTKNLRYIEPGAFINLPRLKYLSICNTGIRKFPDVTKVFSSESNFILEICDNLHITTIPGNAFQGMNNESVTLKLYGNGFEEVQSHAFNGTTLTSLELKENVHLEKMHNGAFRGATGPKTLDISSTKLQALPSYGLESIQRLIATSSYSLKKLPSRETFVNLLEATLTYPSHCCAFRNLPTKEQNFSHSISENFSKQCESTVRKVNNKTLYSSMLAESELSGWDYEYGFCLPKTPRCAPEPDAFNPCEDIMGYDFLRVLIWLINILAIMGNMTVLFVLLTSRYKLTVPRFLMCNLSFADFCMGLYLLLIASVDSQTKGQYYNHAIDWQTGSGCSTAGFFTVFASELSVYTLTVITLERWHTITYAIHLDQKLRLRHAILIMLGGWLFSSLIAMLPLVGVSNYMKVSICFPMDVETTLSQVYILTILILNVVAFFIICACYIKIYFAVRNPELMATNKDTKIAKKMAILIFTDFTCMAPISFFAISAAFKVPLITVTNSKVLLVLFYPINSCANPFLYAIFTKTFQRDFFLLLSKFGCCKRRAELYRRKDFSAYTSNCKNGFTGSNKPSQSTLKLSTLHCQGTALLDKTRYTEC
Histamine H2 receptor (Homo sapiens), sequence (P25021 whole entry): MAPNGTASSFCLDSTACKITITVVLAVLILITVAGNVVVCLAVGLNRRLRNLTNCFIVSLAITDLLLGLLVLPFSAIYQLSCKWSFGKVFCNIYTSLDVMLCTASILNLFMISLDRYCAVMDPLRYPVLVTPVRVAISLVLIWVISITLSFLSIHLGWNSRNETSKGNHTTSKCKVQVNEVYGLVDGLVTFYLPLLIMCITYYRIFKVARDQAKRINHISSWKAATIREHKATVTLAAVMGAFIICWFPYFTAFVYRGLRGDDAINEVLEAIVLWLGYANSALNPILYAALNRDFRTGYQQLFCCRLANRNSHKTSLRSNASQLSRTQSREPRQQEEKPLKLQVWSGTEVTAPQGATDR
Somatostatin receptor type 4 (Homo sapiens), sequence (P31391 whole entry): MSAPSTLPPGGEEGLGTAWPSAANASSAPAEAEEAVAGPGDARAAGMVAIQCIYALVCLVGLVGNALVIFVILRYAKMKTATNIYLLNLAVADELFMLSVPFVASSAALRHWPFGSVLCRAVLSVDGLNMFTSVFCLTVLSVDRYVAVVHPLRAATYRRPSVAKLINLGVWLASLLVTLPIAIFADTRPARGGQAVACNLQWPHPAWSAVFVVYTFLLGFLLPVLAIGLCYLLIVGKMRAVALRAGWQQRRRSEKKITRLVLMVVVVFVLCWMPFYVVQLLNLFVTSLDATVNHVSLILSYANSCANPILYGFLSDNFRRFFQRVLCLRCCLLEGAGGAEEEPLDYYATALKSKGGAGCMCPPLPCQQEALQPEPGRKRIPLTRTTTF

One may read the IC50 as the midpoint of a concentration-inhibition curve. What is called half-life is the time in which the quantity being followed falls by half. By solubility is commonly meant the dissolved amount per volume that the medium holds. What is called clearance is the rate of elimination divided by the concentration. Regarding `O=C(Nc1ccc(Oc2ccc(F)cc2)cc1)N1CCc2ncccc2[C@@H]1c1ccc(Cl)cc1`, the IC50 at Cytochrome P450 2C9 turned out to be 4.4 µM; at Thyrotropin receptor, 2.3 µM; in data set [15] it was 0.096 µM. Further, the Activity is under 70% in data set [1]; 57 pmol/L with Rattus norvegicus [6]; under 70% in data set [8]; under 70% in [9]; under 70% in data set [10]; under 70% in data set [12]. In addition, the Activity in data set [17] and in [18] was under 70% in each case. In data set [2], this molecule showed a half-life of 12 h. Further, the figures for the Fh at 1 µM in data set [3], in data set [5] and in data set [13] were 85%, 74% and 94%, respectively. Also, the bioavailability in data set [4] amounted to 83%. Also, the Ratio IC50 in the data set listed under Homo sapiens was 24. The result with Rattus norvegicus [7] was Active. This molecule gave a solubility at 24 h in data set [11] of 3.5 µg/mL (≈ 7.38 µM). In addition, the clearance in data set [14] was 1.83 mL/min/kg. Also, in data set [16], the concentration at 192 h stood at 7 µM. This molecule yielded a Cmax/dose in data set [19] of 0.97 kg/L. Moreover, the CLH in data set [20] was 18.3 mL/min/kg.
For the molecule `O=C(Nc1cnc(Oc2ccc(F)cc2)nc1)N1CCc2ncccc2[C@@H]1c1ccc(F)cc1` [BAY-899], the half-inhibitory concentration (IC50) was 9.9 µM against Cytochrome P450 2C9, 24 µM on Thyrotropin receptor and 0.185 µM in data set [15]. For the same molecule, the Activity in [1] was under 70%; with Rattus norvegicus [6], 54 pmol/L; in data set [8], under 70%; in data set [9], under 70%; in data set [10], under 70%; in data set [12] it was under 70%. The Activity in data set [17] and in data set [18] was under 70% each time. In data set [2], this molecule showed a half-life of 33 h. The figures for the Fh at 1 µM in [3], in data set [5] and in data set [13] were 89%, 68% and 95%, respectively. For the same molecule, in [4], the bioavailability was 108%. Further, the Ratio IC50 in the data set filed under Homo sapiens is over 100. Further, the outcome in the data set with Rattus norvegicus [7] was Active. Also, the solubility at 24 h in data set [11] was found to be 39 µg/mL (≈ 84.9 µM). The molecule further had a clearance in data set [14] of 6.83 mL/min/kg. The molecule also came in with a concentration at 192 h in data set [16] of 34 µM. The same molecule gave a Cmax/dose in data set [19] of 0.28 kg/L. The molecule further yielded a CLH in [20] of 21.7 mL/min/kg.
